Consider three compounds from patent US20240299562A1 (priority 2020, published 2024).

One data set relates to HCT-116 cells. Description: WST-1 cell viability, HCT-116 colorectal cancer cells. Format: cell-based. The note with it: for SI = HME-1 IC50/cancer IC50: HCT-116 (CrC) vs HME-1 (Table 3); for IC50: WST-1 (Table 1), read-out: Absolute IC50. As for the experimental part: (§1) All commercial cell lines were purchased at ATCC (LGC Standards SARL, France). Cells were seeded in 96-well plates according to their optimal seeding density, varying between 5.000 and 10.000 cells/well. After attachment overnight, 10-point serial titrations (1:5) were prepared in their equivalent complete media as recommended by ATCC, starting from the 10 mM stock solutions. For doxorubicin comprising prodrugs dilutions started from 100 μM, while for the parent compound doxorubicin dilutions started at 10 μM. […] Seventy-two hours later, compounds were removed together with the supernatants and cells were washed once with PBS to remove excess drugs.
(§2) The WST-1 assay for cell proliferation and viability (Roche, Switzerland) was performed according to manufacturer's protocol. Absorbances were measured at 4 hrs using a Perkin Elmer Ensight multiplate reader, equipped with Kaleido 2.0 software (Perkin Elmer, USA). Cell viability was expressed as a percentage compared to non-treated cells. Absolute IC50 values were extrapolated from a non-linear fitting following the Sigmoidal-4PL regression method using Graphpad Prism 7.0. Likewise, maximal efficacy was determined as 100% minus the cell viability determined when cells are incubated in the presence of a compound. For instance, if 20% of the cells survive incubation in the presence of a compound, then the maximal efficacy of that compound is 100%-20%=80%.
(§3) Selectivity indices (SI) were defined as the ratio of the concentration of drug required to kill 50% of the cells in normal (control, non-cancer) cells, divided by the concentration required to exert the same efficacy in tumor cells: SI=IC50 (control cell)/IC50 (cancer cell), or SI=^HME-1IC50/cancer IC50.
For orientation: Formazan colour is commonly taken as a measure of viable cells.

A further data set concerns NCI-1299 cells. Description: WST-1 cell viability, NCI-H1299 lung cancer cells. Format: cell-based. As to conditions: for IC50: WST-1 (Table 1), read-out: Absolute IC50; for SI = HME-1 IC50/cancer IC50: NCI-1299 (NSCLC) vs HME-1 (Table 3). As to the method:
as §1, §2, §3

A further data set has as its system MIA PaCa-2 cells. As to the kind of experiment: WST-1 cell viability, MIA PaCa-2 pancreatic cancer cells. Format: cell-based. The note with it: for IC50: WST-1 (Table 1), read-out: Absolute IC50; for SI = HME-1 IC50/cancer IC50: MIA PaCa-2 (PaC) vs HME-1 (Table 3). As to the method:
as §1, §2, §3

The test system of data set [1] is hiPSC-derived astrocytes (iAstro). As to the kind of experiment: WST-1 cell viability, hiPSC-derived astrocytes (iAstro). Format: cell-based, human. The note with it: iAstro normal astrocytes, 72 hrs; for IC50: WST-1 (Table 4), read-out: Absolute IC50; for Maximal efficacy: WST-1 (Table 5). As to the method:
as §1, §2, §3
hiPSC-derived astrocytes were purchased from Tempo Biosciences (iAstro™). Prior to use, six-well plates were coated with 1 ml GFR Matrigel (1:100˜0.1 mg/ml, Corning #356231) and allowed to polymerize at 37° C. overnight. Three days before assaying, cells were defrosted and seeded onto the GFR Matrigel in iAstro medium, and allowed to recover from defrosting for 48 hrs. The recovery was aided using RevitaCell™ Supplement during the first 24 hrs. After morphological inspection, cells were transferred to 96-well plates and 4-well microscopy vessels (Millipore), coated with Poly-L-lysine (50 μg/ml, P2533, Sigma Aldrich) and mouse laminin (4 ng/ml, L2020, Sigma Aldrich), using StemPro Accutase reagent (Invitrogen). Following overnight recovery, iAstro's were exposed to the same treatment protocol described above.

The test system of data set [2] is LS-174T colorectal tumor cells xenografted in Nude NMRI mice. Description: In vivo activity on LS-174T colorectal cancer xenograft. Further details: species or system mouse. The note with it: twice per week. As to the method:
The in vivo efficacy of PhAc-ALLP-Dox was tested in a mouse model of colorectal cancer. LS-174T colorectal tumor cells were xenografted in Nude NMRI mice. In total, 30 adult (9-10 weeks old) nude female NMRI mice (Janvier, France) were subjected to subcutaneous (SC) tumor cell grafting in the right flank. In total, 2×10^6 LS-174T cells resuspended in PBS were injected in 200 uL final volume. As soon as the tumors were palpable and reached the volume of 200 mm3 the treatment was started. […]
Treatments were performed twice per week for a total of four tail vein administrations/injections (on days 1, 4, 7 and 10). […] During the experiment, tumor volume was measured two times a week and was assessed three-dimensionally with a digital caliper (Mitutoyo, Illinois) using the following formula: […]
Tumor growth inhibition (TGI) expressed as percentage vs control was calculated as follows: % TGI=(1−{Tt/T0/Ct/C0}/1−{C0/Ct})×100 where Tt and T0 are the individual tumor volume of treated mouse X at times t and 0 respectively, Ct and C0 are the mean tumor volume of the control group at times t and 0 respectively.

A further data set deals with cancer cell lines. Description: In vitro potency and selectivity across a variety of cancer indications (WST-1). As to conditions: 72 hrs. The data set is classed as cell-based. As to the method: as §1
as §2, with “For instance, if 20% of the cells survive incubation in the presence of a compound, then the maximal efficacy of that compound is 100%-20%=80%.” left out

The test system of data set [3] is A2058 melanoma cells subcutaneously implanted in nude NMRI mice. Description: In vivo activity on A2058 melanoma xenograft. Further details: species or system mouse. As to the method: The in vivo efficacy of PhAc-ALLP-PABC-MMAE was tested in a mouse melanoma model. A2058 melanoma cells were subcutaneously (SC) implanted in nude NMRI mice. In total, 36 adult (9-10 weeks old) nude female NMRI mice (Janvier, France) were subjected to SC tumor cell grafting in the right flank. In total, 3×10^6 A2058 cells resuspended in PBS plus Matrigel (1:1) were injected in 200 uL final volume. As soon as the tumors were palpable and reached the volume of 200 mm3 the treatment was started. At day zero, mice were randomly divided into 4 groups, based on the tumor volume, in order to have the following experimental sub-cohorts: • control group receiving the vehicle (PBS pH7.2) with a dose of 5 ml/kg, intravenously (iv), once per week (QW); • PhAc-ALLP-PABC-MMAE (2 mg/kg iv, QW); • PhAc-ALLP-PABC-MMAE (4 mg/kg iv, QW); • MMAE (0.9 mg/kg iv, QW).
Treatments were performed once per week for a total of four tail vein administrations/injections (on days 1, 7, 14 and 21). Two extra weeks of observation followed the active treatment phase. During the experiment, tumor volume was measured two times a week and was assessed three-dimensionally with a digital caliper (Mitutoyo, Illinois) using the following formula:
V=4/3π×[(d/2)^2×(D/2)], where d is the minor tumor axis and D is the major tumor axis.

Values joined by “and” are separate entries in the source; they are usually repeats but may differ in a detail not shown here. Equal entries are not always repeated. Where two headings read alike, the source gives them in different places. *1 amine or outer side, *2 acyl side, *3 side chain or, on linkers, in order; H or OH if unused. Where a SMILES comes first, the peptide text is derived from it. [ ]: non-standard residue; d: D form. The star is where a group is joined. X1 = CO[C@@H](C1CCCN1[*:1])[C@@H](C)C(=O)[*:2]; Dil = CC[C@H](C)[C@H](NC)[C@@H](CC(=O)O)OC; PABC = O=C(OCc1ccc(N[*:1])cc1)[*:2]; Phosphonoacetyl = O=C(CP(=O)(O)O)*; X2 = C[C@@H](N*)[C@@H](O)c1ccccc1; NMeV = CN[C@H](C(=O)O)C(C)C Some results are limits rather than exact numbers.

As for `COc1cccc2c1C(=O)c1c(O)c3c(c(O)c1C2=O)C[C@@](O)(C(=O)CO)C[C@@H]3O[C@H]1C[C@H](N)[C@H](O)[C@H](C)O1` [Doxorubicin, reference compound], the figures for the “SI = HME-1 IC50/cancer IC50” value with HCT-116 cells, with NCI-1299 cells and with MIA PaCa-2 cells were 0.36, 1.33 and 0.44, respectively. Also, the IC50 in the data set on HCT-116 cells (Homo sapiens, HCT-116 (CrC), 72 hrs) was 120 nM; in the data set with NCI-1299 cells (Homo sapiens, NCI-H1299, NCI-1299 (NSCLC), 72 hrs) it was 30 nM; in the data set on MIA PaCa-2 cells (Homo sapiens, MIA PaCa-2 (PaC), 72 hrs), 100 nM. For the same compound, the cytotoxicity at 100 µM in the data set with HCT-116 cells (Homo sapiens, HCT-116 (CrC), 72 hrs, WST-1 (Table 2), read-out: Maximal efficacy, cytotoxicity (%) at 100 μM) stood at 93.5%; in the data set on NCI-1299 cells (Homo sapiens, NCI-H1299, NCI-1299 (NSCLC), 72 hrs, WST-1 (Table 2), read-out: Maximal efficacy, cytotoxicity (%) at 100 μM) it was 92.9%; in the data set on MIA PaCa-2 cells (Homo sapiens, MIA PaCa-2 (PaC), 72 hrs, WST-1 (Table 2), read-out: Maximal efficacy, cytotoxicity (%) at 100 μM), 94.4%.
For `COc1cccc2c1C(=O)c1c(O)c3c(c(O)c1C2=O)C[C@@](O)(C(=O)CO)C[C@@H]3O[C@H]1C[C@H](NC(=O)[C@@H]2CCCN2C(=O)[C@H](CC(C)C)NC(=O)[C@H](CC(C)C)NC(=O)[C@H](C)NC(=O)CP(=O)(O)O)[C@H](O)[C@H](C)O1` [PhAc-ALLP-Dox, PhAc-ALLP-Doxorubicin] (HELM PEPTIDE1{[O=C(CP(=O)(O)O)[*:2]].A.L.L.P.[COc1cccc2c1C(=O)c1c(O)c3c(c(O)c1C2=O)C[C@@](O)(C(=O)CO)C[C@@H]3O[C@H]1C[C@H](N[*:1])[C@H](O)[C@H](C)O1]}$$$$V2.0), the “SI = HME-1 IC50/cancer IC50” value in the data set on HCT-116 cells turned out to be 3.34; with NCI-1299 cells, 27.39; in the data set with MIA PaCa-2 cells, 0.79. Besides, the IC50 is 11100 nM in the data set with HCT-116 cells (HCT-116 (CrC), 72 hrs); 20300 nM in data set [1]; 1350 nM in the data set on NCI-1299 cells (NCI-1299 (NSCLC), 72 hrs); 46800 nM with MIA PaCa-2 cells (MIA PaCa-2 (PaC), 72 hrs). Further, the “Maximal efficacy, cytotoxicity (%) at 100 μM” value worked out at 67.49% in the data set on HCT-116 cells (HCT-116 (CrC), 72 hrs, WST-1 (Table 2)); 70.15% in the data set with NCI-1299 cells (NCI-1299 (NSCLC), 72 hrs, WST-1 (Table 2)); 65.41% with MIA PaCa-2 cells (MIA PaCa-2 (PaC), 72 hrs, WST-1 (Table 2)). Moreover, the Maximal efficacy in data set [1] amounted to 68.5%. In addition, in data set [2] (10 mg/kg and 30 mg/kg iv), the Tolerability entry is recorded as “mice did tolerate both doses”. Also, the “Tumor volume compared to the untreated control group” value in data set [2] (30 mg/kg iv, four tail vein administrations) is reported as “significantly reduced the tumor volume”. The “Potency range against cancer cells” value in the data set on cancer cell lines is “within the micromolar range”.
With `CC[C@H](C)[C@@H]([C@@H](CC(=O)N1CCCC1[C@H](OC)[C@@H](C)C(=O)N[C@H](C)[C@@H](O)c1ccccc1)OC)N(C)C(=O)[C@@H](NC(=O)[C@H](C(C)C)N(C)C(=O)OCc1ccc(NC(=O)[C@@H]2CCCN2C(=O)[C@H](CC(C)C)NC(=O)[C@H](CC(C)C)NC(=O)[C@H](C)NC(=O)CP(=O)(O)O)cc1)C(C)C` (stereo partly drawn) [PhAc-ALLP-PABC-MMAE] (Phosphonoacetyl-ALLP[PABC][NMeV]V[Dil][X1]-X2), the “Tumor volume compared to the untreated control group” value in data set [3] (2 mg/kg iv, once per week, four administrations) is on record as “importantly reduced the tumor volume”. In addition, the Response result in data set [3] (2 mg/kg iv, once per week, observed until day 34) is “Complete response”. In addition, the “Relapse and macroscopical toxicity” value in data set [3] (2 mg/kg iv, once per week, until day 34) is on record as “without any hint of relapse or macroscopical sign of toxicity”. Further, the Tumor growth result in data set [3] (higher concentration (4 mg/kg iv, once per week)) is on record as “important reduction of tumor growth”. The “Reduction of body weight” value in data set [3] (higher concentration (4 mg/kg iv, once per week), sacrificed at day 21) is more than 20%. Also, in data set [1], the IC50 is more than 500 nM; the Maximal efficacy is 2% and 1.7%.

The IC50 is the concentration needed to halve the response being measured.
